{"source": "patent US11214567B2", "about": "“Small molecule inhibitors of MYC and uses thereof” (The Regents of the University of Michigan, priority 2017, dated 2022)", "key": {"[1]": {"tested_on": "C-MYC", "assay": "Western blotting of C-MYC protein levels in cancer cells", "assay_type": "cell-based, human", "description": "Cells (5×10^5) were cultured in 6-well plate and treated with KJA03 at designated concentrations. After treatment, cells were lysed with cell lysis buffer on ice at 4° C., sonicated for 3 min, centrifuged (12,000 rpm, 10 min, 4° C.) and then, the supernatant was collected. Protein concentrations of supernatants were evaluated with BCA assay. Proteins were resolved in 10% SDS/PAGE and electrotransferred to Immun-Blot PVDF membrane (Bio-Rad). After blocking with 5% milk in TBST (Tris-buffered saline with 0.1% Tween 20), membranes were probed with primary antibodies (anti-PARP, anti-caspase 3 and anti-GAPDH) 1:1000 dilutions overnight at 4° C. Membranes were then washed with TBST (5 min×3), incubated with Dylight 800-conjugated secondary antibodies 1:7500 dilutions in 5% milk for 1 h at room temperature, and washed with TBST (5 min×3). Fluorescent signal was then scanned by Odyssey Imaging Systems (LI-COR Biosciences).\nThe effect of KJA03 on the MYC protein levels, including C-MYC and N-MYC, NCI/ADR-RES cells were treated with KJA03 at concentration of 0.1 (half IC50) and 0.2 (IC50) μM for 24 and 48 h. […] It has previously been reported that JQ1 treatment leads to down-regulation of c-MYC protein levels in osteosarcoma, leukemia and lymphoma cells (see, e.g., Mertz, J. A.; et al., Proceedings of the National Academy of Sciences 2011, 108, 16669-16674).\nExperiments were conducted to further repeat the experiment and JQ1 was chosen as a positive control. As expected, expression of C-MYC was reduced by KJA03 at 24 h of treatment, correlated with previous experiment (FIG. 3).\nExperiments were conducted that further performed a time-course experiment to evaluate C-MYC suppression including 2, 6, 8 24 and 48 h at concentration of 0.2 μM. To define the specificity of MYC suppression in further detail, we treated cells with a range of compound concentrations at 24 h. […] To determine whether KJA03 can suppress C-MYC in different cell lines, we next investigated the level of C-MYC in response to treatment with KJA03 at 0.2 μM using other three different OVCAR8, MIA PaCa-2 and Panc-1 cell lines."}, "[2]": {"tested_on": "five human cancer cell lines (OVCAR-8, NCI/ADR-RES, SKOV3, MIA PaCa-2, Pac-1)", "assay": "MTT assay, panel of five human cancer cell lines", "assay_type": "cell-based", "details": "span over the five cell lines, read-out: IC50 against five cancer cell lines", "description": "The evaluation of cytotoxicity was based on the reduction of MTT dye by viable cells to give purple formazan products, which can be measured spectrophotometrically at 540 nm. One hundred eighty microliters of cancer cells were seeded into 96-well plates at 3,500-4,000 cells/well and incubated at 37° C. overnight before the indicated treatments. After 72 h, 20 μl of MTT solution (3 mg/ml) was added and incubated again for 3 h. After removal of media and solubilization of formazan crystals in 150 μL of DMSO, the absorbance was measured at 570 nm. Percentage of cell growth inhibition was expressed as 1-[(A−B)/(C−B)]×100% (A, B and C were the absorbance values from experimental, blank and control cells, respectively).\nKJA derivatives were tested by the MTT assay against five human cancer cell lines including ovarian cancer cell lines (OVCAR-8, NCI/ADR-RES and SKOV3) and pancreatic cancer cell lines (MIA PaCa-2 and Pac-1). […] It is important to note that the NCI/ADR-RES cell line shares a large number of karyotypic abnormalities with OVCAR-8 but expresses high levels of MDR1 (multidrug resistance protein 1)/P-glycoprotein (see, e.g., Xu, S.; et al., Proceedings of the National Academy of Sciences 2012, 109, 16348-16353), resulting in resistance to multiple anticancer drugs in clinical use, including paclitaxel and doxorubicin."}, "[3]": {"tested_on": "TXNIP", "assay": "Western blotting of TXNIP protein levels", "assay_type": "cell-based, human", "details": "NCI/ADR-RES; Western blot"}}, "note": "“Also recorded” adds a separate entry of the source."}
{"smiles": "Cc1ccc(-c2noc(-c3ccccc3-n3c(-c4ccc(C)cc4)noc3=O)n2)cc1", "note": "[KJA03, 3-(P-tolyl)-4-(2-(3-(p-tolyl)-1,2,4-oxadiazol-5-yl)phenyl)-1,2,4-oxadiazol-5(4H)-one]", "values": [{"measurement": "MYC suppression, ovarian versus pancreatic cancer cells", "setting": "[1]; 0.2 μM, OVCAR8, NCI/ADR-RES, MIA PaCa-2 and Panc-1", "value": "suppresses MYC strongly in ovarian cancer cells"}, {"measurement": "MYC protein levels", "setting": "[1]; 0.1 (half IC50) and 0.2 (IC50) μM at 24 and 48 h", "value": "significantly reduce MYC protein levels"}, {"measurement": "C-MYC protein levels, range of concentrations", "setting": "[1]; MiaPaca-2", "value": "down-regulated dose-dependently"}, {"measurement": "C-MYC protein levels", "setting": "[1]; NCI/ADR-RES cells, 0.2 μM, 24 h", "value": "reduced C-MYC levels; also recorded: efficiently decrease the C-MYC protein levels"}, {"measurement": "C-MYC suppression, time-course", "setting": "[1]; NCI/ADR-RES, 0.2 μM, 2, 6, 8, 24 and 48 h", "value": "significantly suppressed only at 24 h"}, {"measurement": "C-MYC protein levels, range of concentrations", "setting": "[1]; NCI/ADR-RES, 24 h", "value": "decreased levels of C-MYC in a dose-dependent manner; also recorded: down-regulated dose-dependently"}, {"measurement": "C-MYC protein levels, range of concentrations", "setting": "[1]; OVCAR8", "value": "down-regulated dose-dependently"}, {"measurement": "C-MYC protein levels, range of concentrations", "setting": "[1]; Pac-1", "value": "down-regulated dose-dependently"}, {"measurement": "IC50", "setting": "[2]", "value": "130 to 310", "unit": "nM"}, {"measurement": "TXNIP protein levels", "setting": "[3]", "value": "downregulated; also recorded: down-regulated dose-dependently"}]}
